In US20240307220A1, “Combination Therapy to Treat Temperature Sensitive Mutant Tumors” (H. LEE MOFFITT CANCER CENTER AND RESEARCH INSTITUTE INC., priority 2021, published 2024):

Legend:
UC3 bladder cancer cells = assay: UC3 colony formation after 2 hrs drug treatment, washout and 32° C. or 37° C. incubation; type: cell-based; conditions: 2 hrs drug at 37° C., washout, 32° C. vs 37° C. 24 hrs, then 7 days at 37° C.
Protocol: FIGS. 17A and 17B show hypothermia treatment given after chemotherapy enhances drug response in bladder cancer. […] The washed cells were incubated at 32° C. or 37° C. for 24 hrs, followed by 7 days at 37° C. and crystal violet staining for colony formation.
Standard bladder intravesical chemotherapy involves 1-2 hr irrigation with drugs at 37° C. or 42° C. The effect of treating cells with 32° C. hypothermia after chemotherapy was tested to avoid interference with drug uptake. TS mutant p53 activation peaks 6-8 hrs after shift to 32° C., which should cooperate with chemotherapy-induced DNA damage to induce cell death. […] Saline irrigation of up to 24 hrs is routinely performed after transurethral resection of bladder tumor (TURBT) procedure to prevent clotting. Therefore, irrigation with cooled saline after intravesical chemotherapy is expected to be well-tolerated and safe.

[1] = tested on: H1299 stably expressing ts p53 mutants; assay: Apoptosis (PARP cleavage) and MTS cell viability in H1299 stably expressing ts p53 mutants treated with CPT; type: cell-based, human
Protocol: FIGS. 3A to 3D show induction of growth arrest and cell death by p53 ts mutants. […] DNA replication rate was measured by scintillation counting and normalized to cell number. […] PARP cleavage was determined by Western blot. FIGS. 3C and 3D show H1299 stably expressing ts p53 mutants treated with CPT at indicated concentrations for 48 hrs at 37° C. or 32° C. Cell viability was determined by MTS assay. The results are average of 3 experiments (mean±SD).
Western blot. Cells were lysed in lysis buffer (50 mM Tris-HCl pH 8.0, 5 mM EDTA, 150 mM NaCl, 0.5% Nonidet P-40, 1×protease inhibitor cocktail) and centrifuged for 10 minutes at 14,000×g, and the insoluble debris was discarded. Cell lysate (10-50 µg of protein) was fractionated by SDS-PAGE and transferred to Immobilion P filters (Millipore). […] MDM2 was detected using monoclonal antibody 3G9 produced in house. Other markers were detected using commercial antibodies: Actin (Sigma A5441), p53-DO1 (BD Pharmingen #554293), p21 (BD Pharmingen #556430), PUMA (CellSignaling #12450), PARP (BD Pharmingen #556362), p53 pSer15 (CellSignaling #9284), p53 acetyl-Lys382 (CellSignaling #2525).
Cell proliferation and viability assays. DNA replication was analyzed using ^3H-thymidine incorporation assay. […] The incorporated ^3H-thymidine was analyzed by liquid scintillation counting. […]

GA10-p53KO tumors = assay: GA10-p53KO subcutaneous tumor xenografts in nude mice treated with CPT and hypothermia; type: in vivo; conditions: 32 hr×5 format
Protocol: FIGS. 7A to 7E show hypothermia cooperates with chemotherapy to induce regression of tumors expressing ts p53. […] CPT (1.5 mg/kg) was given at the beginning of each hypothermia cycle. Average size of tumors was plotted over time (mean±SD). FIG. 7B contains pictures of a GA10 partial response tumor before and after treatment. FIG. 7C is a waterfall plot showing combined results of 3 experiments. Tumors with durable remission are marked as “cured”. FIG. 7D contains individual growth curves of representative GA10 tumors from FIG. 7A that achieved durable remission after treatment. FIG. 7E contains individual growth curves of GA10 tumors from FIG. 7A that relapsed and received re-treatment.
Animal experiment. Animal experiments were reviewed and approved by the University of South Florida IACUC. Athymic female nude mice (6-week old, Athymic Nude-Foxn1nu, Envigo) were injected subcutaneously with 0.1 ml 1:1 slurry of Matrigel (VWR 47743-715) and 1×10^7 cells in PBS at each site. The inoculated mice were housed in a cabinet set to 28° C. (ARIA BIO-C36 ventilated cabinet, TECNIPLAST) to ensure that tumors develop at ˜37° C. […] The mice were kept in the 28° C. cabinet and monitored using infrared thermal imaging camera (FLIR ONE Pro, FLIR® Systems, Inc.) to verify that body temperature was maintained at ˜32° C. […]

CC[C@@]1(O)C(=O)OCc2c1cc1n(c2=O)Cc2cc3ccccc3nc2-1 [CPT, Camptothecin] was tested, and the “effect of 32° C. for 24 hrs after drug on growth inhibition (colony formation)” value (UC3 bladder cancer cells) was “significantly increased the growth inhibition potency”, the “apoptosis indicated by PARP cleavage” value ([1]; 0.5 μM CPT for 48 hrs at 32° C., 1% FBS) was “cooperated with CPT to induce apoptosis” and the “cell viability (MTS assay)” value ([1]; CPT for 48 hrs at 32° C.) was “loss of cell viability”. The “GA10-p53KO complete response or durable remission” value (GA10-p53KO tumors; CPT 1.5 mg/kg and 32° C. hypothermia) was “did not achieve complete response or durable remission” and the “GA10-p53KO tumor size change” value (GA10-p53KO tumors; p53-independent effects of CPT and hypothermia) was “modest shrinkage”.
